Experimental data taken from paper PMC2739411 (Anesthesiology, 2009).

Target: γ-aminobutyric acid type A (GABAA) receptor α1β2γ2L (Homo sapiens, UniProt P14867+P47870)
Assay: two-electrode voltage clamp in oocytes
Type: cell-based
Conditions: read-out: % enhancement of EC5-10 GABA current at 8 μM

γ-aminobutyric acid type A (GABAA) receptor α1β2γ2L, sequence (P47870 26-512): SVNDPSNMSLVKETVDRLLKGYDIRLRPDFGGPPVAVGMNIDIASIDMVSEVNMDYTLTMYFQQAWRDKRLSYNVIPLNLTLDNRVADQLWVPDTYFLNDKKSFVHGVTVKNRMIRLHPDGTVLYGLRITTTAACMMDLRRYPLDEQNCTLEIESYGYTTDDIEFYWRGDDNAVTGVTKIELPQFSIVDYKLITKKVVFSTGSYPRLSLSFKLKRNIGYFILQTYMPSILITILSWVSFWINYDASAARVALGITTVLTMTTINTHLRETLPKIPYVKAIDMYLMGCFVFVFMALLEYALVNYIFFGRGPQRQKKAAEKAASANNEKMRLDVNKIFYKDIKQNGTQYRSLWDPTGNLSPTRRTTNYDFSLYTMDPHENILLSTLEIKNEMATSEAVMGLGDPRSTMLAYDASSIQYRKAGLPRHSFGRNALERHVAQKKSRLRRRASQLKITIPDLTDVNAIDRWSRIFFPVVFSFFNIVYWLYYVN
γ-aminobutyric acid type A (GABAA) receptor α1β2γ2L, sequence (P14867 28-456): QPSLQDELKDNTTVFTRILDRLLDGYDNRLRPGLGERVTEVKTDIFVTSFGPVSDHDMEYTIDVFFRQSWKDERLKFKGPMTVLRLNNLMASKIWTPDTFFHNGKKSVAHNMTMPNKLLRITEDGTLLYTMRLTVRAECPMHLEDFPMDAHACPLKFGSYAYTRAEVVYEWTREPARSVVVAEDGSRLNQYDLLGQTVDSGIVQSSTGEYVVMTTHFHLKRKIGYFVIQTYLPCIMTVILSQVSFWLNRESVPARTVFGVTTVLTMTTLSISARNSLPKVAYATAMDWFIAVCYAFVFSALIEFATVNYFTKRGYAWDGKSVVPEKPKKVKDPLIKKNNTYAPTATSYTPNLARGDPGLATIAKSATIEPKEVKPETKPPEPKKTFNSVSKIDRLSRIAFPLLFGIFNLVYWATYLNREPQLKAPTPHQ
γ-aminobutyric acid type A (GABAA) receptor α1β2γ2L, sequence (P18507 40-475 partner): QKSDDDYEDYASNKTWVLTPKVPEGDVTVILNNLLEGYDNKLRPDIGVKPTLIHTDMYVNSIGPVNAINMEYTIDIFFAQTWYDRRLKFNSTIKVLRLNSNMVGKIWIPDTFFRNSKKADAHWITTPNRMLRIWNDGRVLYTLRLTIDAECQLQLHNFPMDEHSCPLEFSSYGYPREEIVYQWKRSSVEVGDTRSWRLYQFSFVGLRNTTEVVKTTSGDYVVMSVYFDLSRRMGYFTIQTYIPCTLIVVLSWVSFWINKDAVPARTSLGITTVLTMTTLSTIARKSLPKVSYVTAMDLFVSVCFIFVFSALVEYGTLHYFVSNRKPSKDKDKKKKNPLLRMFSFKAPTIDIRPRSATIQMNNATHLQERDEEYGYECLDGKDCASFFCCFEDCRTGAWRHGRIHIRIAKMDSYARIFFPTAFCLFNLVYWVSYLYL

COC(=O)CCOC(=O)c1cncn1[C@H](C)c1ccccc1 [compound 3, (R)-3-methoxy-3-oxopropyl1-(1-phenylethyl)-1H-imidazole-5-carboxylate] gave an activation at 8 µM of 450 ± 130%.
